# Like-named read-outs stand apart in the source and are kept apart here.
# Tests used:
# HIV-1Ba-L [1] = assay: HIV-1 replication in PBL, p24 ELISA of culture supernatant; format: cell-based
# Source text: (§1) Peripheral Blood Mononuclear Cell (PBMC) fractions were isolated from heparinized blood from HIV-1-, HIV-2- and hepatitis B-seronegative donors (Bloodbank, Utrecht, The Netherlands) by Ficoll-Isopaque gradient separation. Cells were washed twice and were then either subjected to counter-current centrifugal elutriation, or monocytes in the PBMC fraction were allowed to adhere to fibronectin-coated flasks before the PBL fraction was harvested. Monocytes were of >95% purity by criteria of cell morphology on May-Grunwald-Giemsa-stained cytosmears and by non-specific esterase staining using (α-naphthylacetate (Sigma Chemical Co., St. Louis, MO) and PBL >85% purity by May-Grunwald-Giemsa-staining. Viability of both cell types was >95% at the point of experiment initiation as determined by trypan-blue exclusion. Isolated monocytes were cultured in suspension at a concentration of 2 x 10^6 cells/ml in teflon flasks minimizing adherence (Nalgene, Rochester, NY) and allowed to differentiate for 7 days. MDM medium consisted of Dulbecco's modified Eagle's medium supplemented with 10% heat-inactivated human AB serum, negative for anti-HIV antibodies (Bloodbank Utrecht, NL), 10 µg/ml gentamycin (Life Technologies Ltd, Paisley, Scotland), 5 µg/ml ciprofloxacin (Beyer, Leverkusen, Germany), 0.6 mg/ml L-glutamine (Sigma) and 3.4 g/L bicarbonate (Merck, Darmstadt, Germany). Isolated PBL was stimulated to proliferate for 3 days with 4 µg/ml phytohemagglutinin (PHA; Sigma) in RPMI-1640 (Life Technologies Ltd.) medium supplemented with 10% heat inactivated fetal calf serum (Life Technologies Ltd.) and 10 µg/ml gentamycin. After PHA stimulation the PBL were cultured in medium containing 10 U/ml human recombinant IL-2 (Boehringer, Mannheim, Germany). All incubations were carried out in flat-bottomed 96-well plates at 37 °C, 5% CO2 and 95% air.
# (§2) Cells were infected for 2 hours with HIV-1Ba-L. Macrophages were infected with a multiplicity of infection (MOI) of 0.005 and lymphocytes with an MOI of 0.001. The cells were then washed twice to remove excess virus and subsequently incubated with either DF (Novartis Pharma, Arnhem, The Netherlands), L1 (from Duchefa Farma B.V., Haarlem, The Netherlands) or BLM (H. Lundbeck A/S, Copenhagen, Denmark) for a period of 5 days. Virus in culture supernatant was inactivated in a final concentration of 0.05% empigen (Calbiochem-Novabiochem Co., La Jolla, CA). The presence of HIV-1 in the inactivated supernatant was monitored by checking for the p24-core antigen by enzyme-linked immunosorbent assay (ELISA).
# For the HIV-1 replication measurements cells were infected for 2 hours with HIV-1Ba-L at an MOI of 0.001; the cells were subsequently washed 2 times and incubated with different DF concentrations. After 5 days, supenatant was harvested for p24 ELISA. Virus replication was expressed as % p24 reduction after DF incubations, compared to p24 measured from control HIV-infected cells incubated in the absence of DF (set at 100% p24). Cytotoxicity was measured by the MTT test and is represented as % viable cells after 5 days DF incubations, compared to viable cells from control HIV-infected cells incubated in the absence of DF (set at 100% viable cells). PBL proliferation was measured by overnight ^3H-thymidine incorporation after DF was incubated for 4 days with cells; it is represented as counts per minute (cpm) after DF incubations, compared to cpm from control cells, incubated in the absence of DF. Results are the average of 3 experiments in duplicate (statistical analysis using repeated ANOVA and student Newman-Keuls test, *p<0.05). 100% p24 production represents 19 ng p24/ml
# For the HIV-I replication measurements cells were infected for 2 hours with HIV-1Ba-L at an MOI of 0.001; the cells were subsequently washed 2 times and incubated with different L1 concentrations. After 5 days, supernatant was harvested for p24 ELISA. […]
# HIV-1Ba-L [2] = assay: HIV-1 replication in MDM, p24 ELISA of culture supernatant; format: cell-based; conditions: 5 days
# Source text: as §1, §2
# (§3) For the HIV-1 replication measurements cells were infected for 2 hours with HIV-1Ba-L at an MOI of 0.001; the cells were subsequently washed 2 times and incubated with different compound concentrations. After 5 days supernatant was harvested for p24 ELISA; Virus replication was expressed as % p24 reduction after compound incubations, compared to p24 measured from control HIV-infected cells incubated in the absence of compounds (set at 100% p24). Cytotoxicity was measured by the MTT test and is represented as % viable cells after 5 days compound incubations, compared to viable cells from control HIV-infected cells incubated in the absence of compounds (set at 100% viable cells). Results are the average of 3 experiments in duplicate (statistical analysis using repeated ANOVA and student Newman-Keuls test, *p<0.05). 100% p24 production represents 1.2 ng p24/ml.
# PBL [3] = assay: Cytotoxicity in PBL, MTT assay; format: cell-based, human; conditions: 5 days incubation
# Experimental: (§4) Peripheral Blood Mononuclear Cell (PBMC) fractions were isolated from heparinized blood from HIV-1-, HIV-2- and hepatitis B-seronegative donors (Bloodbank, Utrecht, The Netherlands) by Ficoll-Isopaque gradient separation. Cells were washed twice and were then either subjected to counter-current centrifugal elutriation, or monocytes in the PBMC fraction were allowed to adhere to fibronectin-coated flasks before the PBL fraction was harvested. […] After PHA stimulation the PBL were cultured in medium containing 10 U/ml human recombinant IL-2 (Boehringer, Mannheim, Germany).
# (§5) Possible cytotoxicity of DF, L1 or BLM was monitored by the MTT [3-(4,5 dimethylthiazol-2-yl)-2,5-diphenyltetrazolium bromide] (Sigma) assay.
# (§6) Results are the average of 3 experiments in duplicate (statistical analysis using repeated ANOVA and student Newman-Keuls test, *p<0.05).
# as §6, §6
# MDM = assay: Cytotoxicity in MDM, MTT assay; format: cell-based, human; conditions: 5 days
# Experimental: as §4, §5
# as §3, with “*p<0.05).” for “*p<0.05). 100% p24 production represents 1.2 ng p24/ml.”
# HIV-1Ba-L [4] = assay: Drug combination studies, p24 inhibition in HIV-infected PBL, median-effect / combination index (CalcuSyn); format: cell-based; conditions: 5 days; for IC50: Human immunodeficiency virus 1, 120 h, read-out: IC50 (p24-antigen inhibition)
# Experimental: Three separate experiments were performed substantially as described in the section HIV infection and p24 measurements. Multiply-diluted fixed-ratio combinations of the drugs, or single drugs were added to each incubation point. The IC50 (inhibitory concentration) of each drug was calculated using the computer software program CalcuSyn. The combined-drug effect was evaluated by the median-effect principle and the isobologram method. This method involves the plotting of the dose-effect curve for each drug alone and in combination. The slope of the median-effect plot and the x intercept of the plot were then used for the computerized calculation of a combination index (CI). The CI values were based on the classic isobologram equation and CI values of <1, 1 and >1 indicate synergism (greater than the expected additive effect), additive effects and antagonism (less than the expected additive effect). Fraction affected (fa) was calculated for every drug combination and for each drug alone after p24 measurements in infected PBL incubated for 5 days with the examined compounds (see HIV infection and p24 measurements).
# CT < 1, = 1 and > 1 represent synergistic, additive and antagonistic effects, respectively. The subdivision within the synergistic area (CI >0.7, 0.3-0.7 and <0.3 implying moderate synergism, synergism, and strong synergism respectively) is according to Chou and Talalay. The parameters are obtained using the median effect equation of Chou and Talalay and the CalcuSync computer software programme as described in materials and methods.
# Peripheral blood lymphocytes (PBL) were infected for 2 hours with HIV-1Ba-L at an MOI of 0.001. The cells were subsequently washed 2 times to remove an excess in virus and subsequently incubated for 5 days with only BLM, only ritonavir or various combinations of the two substances. Virus in the supernatant of the cell cultures was inactivated in a final concentration of 0.05% empigen and the presence of HIV-1 in the inactivated supernatant was measured by determining the p24 antigen with enzyme-linked immunosorbent assay (ELISA). […]
# PBL [5] = assay: Lymphocyte proliferation, overnight 3H-thymidine incorporation; format: cell-based, human; conditions: concentrations studied, 4 days incubation then overnight 3H-TdR
# Source text: as §1, with “Isolated PBL was stimulated to proliferate for 3 days with 4 µg/ml phytohemagglutinin (PHA; Sigma) in RPMI-1640 (Life Technologies Ltd.) medium supplemented with 10% heat inactivated fetal calf serum (Life Technologies Ltd.) and 10 µg/ml gentamycin. After PHA stimulation the PBL were cultured in medium containing 10 U/ml human recombinant IL-2 (Boehringer, Mannheim, Germany). All incubations were carried out in flat-bottomed 96-well plates at 37 °C, 5% CO2 and 95% air.” left out
# [6] = single drug within the DF-ddI combination experiment
# [7] = single drug within the BLM-ritonavir combination experiment
# [8] = 300 ng BLM/ml, control 1.2 ng p24/ml
compound,measurement,setting,value
"CC(=O)N(O)CCCCCNC(=O)CCC(=O)N(O)CCCCCNC(=O)CCC(=O)N(O)CCCCCN [DF, deferoxamine]",p24 level in culture supernatant,"HIV-1Ba-L [1]; 3 µM, 5 days, control 19 ng p24/ml",11 ng p24/ml
same,p24 level in culture supernatant,"HIV-1Ba-L [1]; 30 µM, 5 days, n=3, control 19 ng p24/ml",1.9 ng p24/ml
same,inhibition at 3 µM,"HIV-1Ba-L [1]; Human immunodeficiency virus 1, 120 h, 3 µM, 5 days incubation, n=3, p<0.05, control 19 ng p24/ml, read-out: reduction in viral replication (p24)",40%
same,inhibition at 30 µM,"HIV-1Ba-L [1]; Human immunodeficiency virus 1, 120 h, 30 µM, 5 days, n=3, control 19 ng p24/ml, read-out: reduction of p24 levels",> 90%
same,inhibition at 100 µM,"HIV-1Ba-L [2]; Human immunodeficiency virus 1, 120 h, concentrations around 100 µM, control 1.2 ng p24/ml, read-out: reduction of viral replication (p24)",≤ 50%
same,p24 level in culture supernatant,"HIV-1Ba-L [2]; concentrations around 100 µM, control 1.2 ng p24/ml",0.6 ng p24/ml
same,"cytotoxicity (cell viability, MTT)",PBL [3]; 100 µM,cytotoxic
same,"cytotoxicity (cell viability, MTT)",MDM; concentrations around 100 µM,onset of cytotoxicity
same,IC50,HIV-1Ba-L [4]; [6],8.5 µM
"Cc1c(O)c(=O)ccn1C [L1, deferiprone]",HIV-1 replication (p24),"HIV-1Ba-L [1]; 100 µM, 5 days",reduced to minimal levels
same,p24 antigen production,"HIV-1Ba-L [1]; lower compound concentrations (below 100 µM), 5 days",subtle increase
same,up-regulation of p24 antigen production,HIV-1Ba-L [2]; 30 µM,up to two fold
same,"cytotoxicity (cell viability, MTT)",PBL [3]; 100 µM,not cytotoxic
same,"cytotoxicity (cell viability, MTT)",MDM; concentrations studied,not cytotoxic
same,cellular proliferation (3H-thymidine incorporation),PBL [5],decrease in proliferation
"O=c1[nH]cnc2c1ncn2[C@H]1CC[C@@H](CO)O1 [ddI, dideoxyinosine]",IC50,HIV-1Ba-L [4]; [6],3.7 µM
CC(C)c1nc(CN(C)C(=O)N[C@H](C(=O)N[C@@H](Cc2ccccc2)C[C@H](O)[C@H](Cc2ccccc2)NC(=O)OCc2cncs2)C(C)C)cs1 [ritonavir],IC50,HIV-1Ba-L [4]; [7],0.04 µM
bleomycin [BLM],reduction of HIV-1 replication (p24),"HIV-1Ba-L [1]; 3-300 ng BLM/ml, 5 days, n=3, control 19 ng p24/ml",20-50%
same,p24 level in culture supernatant,"HIV-1Ba-L [1]; lower end of 3-300 ng BLM/ml range (20% reduction), n=3, control 19 ng p24/ml",15 ng p24/ml
same,p24 level in culture supernatant,"HIV-1Ba-L [1]; upper end of 3-300 ng BLM/ml range (50% reduction), n=3, control 19 ng p24/ml",9.5 ng p24/ml
same,p24 level in culture supernatant,HIV-1Ba-L [2]; [8],0.6 ng p24/ml
same,reduction of p24 levels,HIV-1Ba-L [2]; [8],50%
same,"cytotoxicity (cell viability, MTT)",PBL [3]; concentrations studied,not cytotoxic
same,"cytotoxicity (cell viability, MTT)",MDM; concentrations studied,not to affect cell viability
same,cellular proliferation (3H-thymidine incorporation),PBL [5],remained intact
same,IC50 (p24-antigen inhibition),HIV-1Ba-L [4]; [7],1.9 µg/mL

# From patent EP1257261B1, “ANTIVIRAL PHARMACEUTICAL COMPOSITIONS CONTAINING IRON CHELATORS” (Faculteit Geneeskunde Universiteit Utrecht, priority 1999, dated 2001)
